Consider 4 molecules from ChEMBL document CHEMBL1649228, “In vivo antibacterial activity of vertilmicin, a new aminoglycoside antibiotic” (2009).

The ED50 is the midpoint of the dose-response relation.

Converted amounts (≈) assume the structure as drawn. Bounds are passed on as bounds.

In assay [1] the test system is Klebsiella pneumoniae. Nature of the assay: microbe, parasite or virus in culture. The note with it: 967.
Description: Antimicrobial activity against Klebsiella pneumoniae 967 using 2.6 X 10^5 CFU inoculum by agar dilution method
Assay [2] deals with Klebsiella pneumoniae. Nature of the assay: Antimicrobial activity against Klebsiella pneumoniae 935 infected in CD-1 ICR mouse using 3 X 10^5 CFU inoculum. The assay is classed as functional.
The subject of assay [3] is Escherichia coli. Nature of the assay: Antimicrobial activity against Escherichia coli 9612 infected in CD-1 ICR mouse using 3.7 X 10^4 CFU inoculum. Format: functional.
In assay [4] the test system is Escherichia coli. Nature of the assay: microbe, parasite or virus in culture. The note with it: 1515.
Description: Antimicrobial activity against Escherichia coli 1515 using 2.4 X 10^6 CFU inoculum by agar dilution method
For assay [5], the system named is Escherichia coli. The assay can be described thus: Antimicrobial activity against Escherichia coli 1515 infected in CD-1 ICR mouse using 2.4 X 10^6 CFU inoculum. The assay is classed as functional.
The subject of assay [6] is Escherichia coli. The assay can be described thus: Antimicrobial activity against Escherichia coli ATCC 25922 infected in CD-1 ICR mouse using 1 X 10^5 CFU inoculum. Format: functional.
Assay [7] deals with Enterococcus faecalis. The assay can be described thus: Antimicrobial activity against Enterococcus faecalis ATCC 29212 using 2.8 X 10^7 by agar dilution method. The assay is classed as functional. For orientation: Agar dilution tests growth on a series of plates holding different concentrations.
The subject of assay [8] is Enterococcus faecalis. Nature of the assay: Antimicrobial activity against Enterococcus faecalis HH22 using 1.8 X 10^8 by agar dilution method. The assay is classed as functional.
Assay [9] concerns Staphylococcus aureus. The assay can be described thus: Antimicrobial activity against methicillin-susceptible Staphylococcus aureus ATCC 29213 infected in CD-1 ICR mouse using 1.5 X 10^5 CFU inoculum. Format: functional.
Assay [10] has as its system Staphylococcus aureus. Nature of the assay: Antimicrobial activity against methicillin-resistant Staphylococcus aureus 9344 infected in CD-1 ICR mouse using 2.5 X 10^5 CFU inoculum. Format: functional.
The test system of assay [11] is Enterococcus faecalis. Nature of the assay: Antimicrobial activity against Enterococcus faecalis HH22 infected in CD-1 ICR mouse using 1.8 X 10^8 inoculum. Format: functional.
Assay [12] relates to Staphylococcus aureus. Nature of the assay: Antimicrobial activity against methicillin-susceptible Staphylococcus aureus 15 infected in CD-1 ICR mouse using 2.5 X 10^5 CFU inoculum. Format: functional.
Assay [13] relates to Klebsiella pneumoniae. The assay can be described thus: microbe, parasite or virus in culture. To be noted: 935.
Description: Antimicrobial activity against Klebsiella pneumoniae 935 using 3 X 10^5 CFU inoculum by agar dilution method
Assay [14] deals with Escherichia coli. The assay can be described thus: microbe, parasite or virus in culture. To be noted: ATCC 25922.
Description: Antimicrobial activity against Escherichia coli ATCC 25922 using 1 X 10^5 CFU inoculum by agar dilution method
Assay [15] concerns Staphylococcus aureus. Nature of the assay: Antimicrobial activity against methicillin-resistant Staphylococcus aureus 9344 using 2.5 X 10^5 CFU inoculum by agar dilution method. The assay is classed as functional.
Assay [16] has as its system Staphylococcus aureus. Nature of the assay: Antimicrobial activity against methicillin-susceptible Staphylococcus aureus 15 using 2.5 X 10^5 CFU inoculum by agar dilution method. The assay is classed as functional.
The test system of assay [17] is Escherichia coli. The assay can be described thus: Antimicrobial activity against Escherichia coli 9612 using 3.7 X 10^4 CFU inoculum by agar dilution method. The assay is classed as functional.
The test system of assay [18] is Klebsiella pneumoniae. The assay can be described thus: Antimicrobial activity against Klebsiella pneumoniae 967 infected in CD-1 ICR mouse using 2.6 X 10^5 CFU inoculum. Format: functional.
For assay [19], the system named is Enterococcus faecalis. The assay can be described thus: Antimicrobial activity against Enterococcus faecalis ATCC 29212 infected in CD-1 ICR mouse using 2.8 X 10^7 inoculum. The assay is classed as functional.
Assay [20] deals with Staphylococcus aureus. Nature of the assay: Antimicrobial activity against methicillin-susceptible Staphylococcus aureus ATCC 29213 using 1.5 X 10^5 CFU inoculum by agar dilution method. The assay is classed as functional.
Assay [21] deals with Escherichia coli. Nature of the assay: Antimicrobial activity against Escherichia coli 9612 infected in new Zealand white rabbit with skin burn injury assessed as decrease in bacterial load in burn wound at 0.5 mg/ml after 24 hrs (reference value: 8.57 +/- 0.35 log10CFU/g). Format: functional.
Assay [22] has as its system Escherichia coli. The assay can be described thus: Antimicrobial activity against Escherichia coli 9612 infected in CD-1 ICR mouse assessed as decrease in bacterial load in kidney at 12 mg/kg, sc after 72 hrs (reference value: 4.45 +/- 0.37 log10CFU/g). The assay is classed as functional. The note with it: route subcutaneous.
In assay [23] the test system is Escherichia coli. The assay can be described thus: Antimicrobial activity against Escherichia coli 9612 infected in CD-1 ICR mouse assessed as decrease in bacterial load in kidney at 7.2 mg/kg, sc after 72 hrs (reference value: 4.45 +/- 0.37 log10CFU/g). The assay is classed as functional. To be noted: route subcutaneous.
Assay [24] concerns Escherichia coli. Nature of the assay: Antimicrobial activity against Escherichia coli 9612 infected in CD-1 ICR mouse assessed as decrease in bacterial load in kidney at 4.32 mg/kg, sc after 72 hrs (reference value: 4.45 +/- 0.37 log10CFU/g). The assay is classed as functional. To be noted: route subcutaneous.
The subject of assay [25] is Escherichia coli. Nature of the assay: Antimicrobial activity against Escherichia coli 9612 infected in CD-1 ICR mouse assessed as decrease in bacterial load in kidney at 2.59 mg/kg, sc after 72 hrs (reference value: 4.45 +/- 0.37 log10CFU/g). Format: functional. To be noted: route subcutaneous.
The test system of assay [26] is Escherichia coli. The assay can be described thus: Antimicrobial activity against Escherichia coli 9612 infected in CD-1 ICR mouse assessed as decrease in bacterial load in kidney at 20 mg/kg, sc after 72 hrs (reference value: 4.45 +/- 0.37 log10CFU/g). To be noted: route subcutaneous. Format: functional.
Assay [27] deals with Escherichia coli. The assay can be described thus: Antimicrobial activity against Escherichia coli 9612 infected in new Zealand white rabbit with skin burn injury assessed as decrease in bacterial load in burn wound at 2 mg/ml after 24 hrs (reference value: 8.57 +/- 0.35 log10CFU/g). The assay is classed as functional.

For `CCN[C@@H]1C[C@H](N)[C@@H](O[C@H]2OC(CN)=CC[C@H]2N)[C@H](O)[C@H]1O[C@H]1OC[C@](C)(O)[C@H](NC)[C@H]1O` [NETILMICIN], the MIC amounted to 0.5 µg/mL (≈ 1.05 µM) against Klebsiella pneumoniae [1]; 0.5 µg/mL (≈ 1.05 µM) against Escherichia coli [4]; 8 µg/mL (≈ 16.8 µM) against Enterococcus faecalis [7]; 8 µg/mL (≈ 16.8 µM) with Enterococcus faecalis [8]; 0.5 µg/mL (≈ 1.05 µM) against Klebsiella pneumoniae [13]; 0.5 µg/mL (≈ 1.05 µM) with Escherichia coli [14]. The MIC against Staphylococcus aureus [15] amounted to 0.25 µg/mL (≈ 0.526 µM); in the assay with Staphylococcus aureus [16], 0.125 µg/mL (≈ 0.263 µM); against Escherichia coli [17], 0.5 µg/mL (≈ 1.05 µM); in the assay with Staphylococcus aureus [20], 0.125 µg/mL (≈ 0.263 µM). For the same molecule, the ED50 with Klebsiella pneumoniae [2] stood at 0.33 mg/kg; in the assay with Escherichia coli [3], 0.63 mg/kg; with Escherichia coli [5], 0.46 mg/kg; with Escherichia coli [6], 0.77 mg/kg; in the assay on Staphylococcus aureus [9] it was 0.26 mg/kg; in the assay on Staphylococcus aureus [10] it was 0.88 mg/kg. Besides, the ED50 in the assay with Enterococcus faecalis [11] is 6.56 mg/kg; with Staphylococcus aureus [12], 0.49 mg/kg; in the assay on Klebsiella pneumoniae [18], 0.17 mg/kg; with Enterococcus faecalis [19], 3.44 mg/kg.

Turning to GENTAMICIN, the ED50 was 0.68 mg/kg in the assay with Klebsiella pneumoniae [2]; 7.88 mg/kg in the assay on Escherichia coli [3]; 1.11 mg/kg with Escherichia coli [5]; 1.5 mg/kg with Escherichia coli [6]; 0.6 mg/kg in the assay on Staphylococcus aureus [9]; 2.84 mg/kg in the assay on Staphylococcus aureus [10]. Besides, the ED50 in the assay on Enterococcus faecalis [11] was over 100 mg/kg; in the assay with Staphylococcus aureus [12] it was 0.61 mg/kg; in the assay with Klebsiella pneumoniae [18], 0.32 mg/kg; in the assay with Enterococcus faecalis [19] it was 17.5 mg/kg. Further, the MIC is 8 µg/mL in the assay with Enterococcus faecalis [7]; over 128 µg/mL with Enterococcus faecalis [8]; 0.25 µg/mL in the assay on Staphylococcus aureus [15]; 0.125 µg/mL against Staphylococcus aureus [16]; 8 µg/mL against Escherichia coli [17]; 0.125 µg/mL in the assay on Staphylococcus aureus [20].

Turning to `CN[C@@H]1[C@@H](O)[C@@H](O[C@@H]2[C@@H](O)[C@H](O[C@@H]3OC(C(C)N)=CC[C@@H]3N)[C@@H](N)C[C@H]2N)OC[C@]1(C)O` (stereo partly drawn) [VERDAMICIN], the MIC in the assay on Klebsiella pneumoniae [1] was 0.25 µg/mL (≈ 0.542 µM); with Escherichia coli [4], 0.5 µg/mL (≈ 1.08 µM); in the assay on Enterococcus faecalis [7], 8 µg/mL (≈ 17.3 µM); with Enterococcus faecalis [8], over 128 µg/mL; with Klebsiella pneumoniae [13] it was 0.5 µg/mL (≈ 1.08 µM); in the assay on Escherichia coli [14], 0.5 µg/mL (≈ 1.08 µM). The MIC against Staphylococcus aureus [15] came to 0.25 µg/mL (≈ 0.542 µM); with Staphylococcus aureus [16], 0.125 µg/mL (≈ 0.271 µM); against Escherichia coli [17], 4 µg/mL (≈ 8.67 µM); with Staphylococcus aureus [20], 0.125 µg/mL (≈ 0.271 µM). Moreover, the ED50 in the assay with Klebsiella pneumoniae [2] amounted to 0.29 mg/kg; with Escherichia coli [3], 2.66 mg/kg; in the assay on Escherichia coli [5] it was 0.49 mg/kg; with Escherichia coli [6] it was 1.09 mg/kg; in the assay with Staphylococcus aureus [9], 0.23 mg/kg; in the assay on Staphylococcus aureus [10] it was 1.33 mg/kg. For the same molecule, the ED50 in the assay on Enterococcus faecalis [11] is over 100 mg/kg; in the assay with Staphylococcus aureus [12], 0.66 mg/kg; in the assay with Klebsiella pneumoniae [18] it was 0.16 mg/kg; in the assay with Enterococcus faecalis [19], 5.24 mg/kg.

Take `CCN[C@@H]1C[C@H](N)[C@@H](O[C@@H]2OC(C(C)N)=CC[C@@H]2N)[C@H](O)[C@H]1O[C@H]1OC[C@](C)(O)[C@H](NC)[C@H]1O` (stereo partly drawn) [VERTILMICIN]: the MIC in the assay with Klebsiella pneumoniae [1] came out at 0.25 µg/mL (≈ 0.511 µM); in the assay with Escherichia coli [4] it was 0.5 µg/mL (≈ 1.02 µM); with Enterococcus faecalis [7], 8 µg/mL (≈ 16.3 µM); against Enterococcus faecalis [8] it was 8 µg/mL (≈ 16.3 µM); in the assay with Klebsiella pneumoniae [13], 0.5 µg/mL (≈ 1.02 µM); in the assay on Escherichia coli [14] it was 0.5 µg/mL (≈ 1.02 µM). Also, the MIC worked out at 0.25 µg/mL (≈ 0.511 µM) against Staphylococcus aureus [15], 0.125 µg/mL (≈ 0.255 µM) against Staphylococcus aureus [16], 0.5 µg/mL (≈ 1.02 µM) in the assay on Escherichia coli [17] and 0.125 µg/mL (≈ 0.255 µM) in the assay with Staphylococcus aureus [20]. Moreover, the ED50 in the assay with Klebsiella pneumoniae [2] was 0.29 mg/kg; with Escherichia coli [3], 0.67 mg/kg; in the assay on Escherichia coli [5], 0.63 mg/kg; in the assay with Escherichia coli [6], 0.82 mg/kg; in the assay with Staphylococcus aureus [9], 0.25 mg/kg; in the assay on Staphylococcus aureus [10], 0.99 mg/kg. For the same molecule, the ED50 in the assay on Enterococcus faecalis [11] worked out at 7.11 mg/kg; with Staphylococcus aureus [12], 0.7 mg/kg; with Klebsiella pneumoniae [18] it was 0.18 mg/kg; in the assay on Enterococcus faecalis [19], 4.35 mg/kg. The log10CFU/g in the assay on Escherichia coli [21] is given as 6.33; in the assay on Escherichia coli [22], 3.11; in the assay with Escherichia coli [23], 3.07; with Escherichia coli [24], 3.22; with Escherichia coli [25] it was 3.32; with Escherichia coli [26] it was 2.36. Further, the log10CFU/g in the assay on Escherichia coli [27] turned out to be 5.
